Where two headings read alike, the source gives them in different places.
Assays:
[1] = target: T1, human DDX3 (ATPase activity) (Homo sapiens, UniProt O00571); experiment: Human DDX3 ATPase activity assay (luciferase-based luminescence); format: biochemical; settings: for Ki: DDX3 ATPase activity, read-out: Ki (μM), apparent equilibrium dissociation constant for the inhibitor to the target enzyme DDX3; for IC50: ATPase activity, read-out: ATPase ID50
T1 construct: made in house; host or cells: E. coli
Description: ATPase activity was tested with a luciferase-based luminescence assay (Easylite-Kinase, Perkin Elmer) on 96 wells microtiter plates. Briefly, recombinant purified human DDX3 (50-100 ng) was incubated in a 15 μL total reaction volume with reaction buffer (25 mM TrisHCl pH 7.5, 5 mM MgCl2), in the presence of increasing amounts of ATP and/or different combinations of ATP and the inhibitor to be tested. Reference curves in the absence of inhibitor (giving the 100% of enzymatic activity) and in the absence of enzyme (giving the baseline), were also included in each experiment. Reading was performed with a Microbeta Trilux (Perkin Elmer) luminometer, according to the manufacturer's protocol.
ATPase reactions were performed as described, in the presence of increasing amounts of inhibitor and variable ATP concentrations. Variations of the initial velocities of the reaction as a function of ATP concentrations in the absence or presence of 4 were analyzed with the equation: […]
Variation of the % inhibition as a function of compound FE15 at different ATP concentrations were fitted to the equation for cooperative binding: […]
where Vmax is the apparent maximal rate of the reaction in the absence of the inhibitor, [I] is the variable inhibitor concentration, n is the cooperativity index and Ki(app) is the apparent inhibition constant. Comparatively, fitting was done with the same Eq. (2) where n was kept fixed at the value of 1 (non-cooperativity hypothesis). F test was used to compare the two fittings and p value was calculated.
(§1) Human recombinant DDX3 was cloned, expressed and purified as described (Franca et al. Proteins 2007, 67, 1128-37).
The anti-DDX3 activity of the compounds of the invention was evaluated by in vitro ATPase activity assay using the recombinant human DDX3 protein produced in E. coli. The potency of inhibition (Ki) for each molecule was calculated, representing the concentration of the inhibitor able to reduce the DDX3 ATPase activity by 50%

[2] = test system: HIV-1; experiment: Antiviral assay, HIV-1 replication in infected PBMCs (viral RNA in supernatant); format: cell-based; settings: for EC50: Human immunodeficiency virus 1, PBMC
Description: FIG. 1. A) Antiviral activity (expressed as % of viral load with respect to the control) of compounds FE56 and FE66 at 0.3 μM and 3 μM doses against single round HIV-1 replication in HeLaCD4+ cells infected with a wild type HIV-1 strain. Measurements were performed at 72 h post infection. B) Antiviral activity of compounds FE15 and FE66 on HIV-1 replication in phytohemagglutinin-stimulated peripheral blood mononuclear cells (PBMCs) […] with HeLa CD4^+-cell culture supernatants containing wild type HIV. Compounds were tested at 50 μM (FE15) and 5 μM (FE66). The HIV-1 RNA was quantified in the cell culture supernatant after 3, and 5 days of incubation. Results are expressed as HIV RNA copies/ml. Control (white bars).
FIG. 2. Antiviral activity of DDX3 inhibitors. A) Comparison of the antiviral activity (expressed as % of viral RNA with respect to the control) on infected PBMCs of a fixed dose of selected inhibitors. Measurements were performed at 72 h post infection. Values are the means of three independent replicates. Error bars are ±SD. White bars: control without drugs; dark grey bar: positive control with AZT (0.01 μM); black bar: first generation inhibitor FE15 (50 μM); light grey bars: second generation DDX3 inhibitors FE66, 11d and 38 (3 μM). B) Dose-response curves for the inhibiton of HIV-1 replication (expressed as % of viral RNA with respect to the control) in infected PBMCs by FE15 (circles) and 38 (triangles). Measurements were performed at 72 h post infection. Values are the means of three independent replicates. Error bars are ±SD.
In detail, 0.5 μg of each HIV-1 plasmid construct was transfected into CD4 HeLa cells by using the lipofectin reagent, according to the recommendations of the manufacturer (Invitrogen, Groningen, The Netherlands). After 3 days of incubation at 37° C., the cell supernatants, which contained reconstituted viable recombinant viruses, were collected. Quantification of the newly produced recombinant strains was obtained by determination of the HIV RNA copy number in the cell culture supernatants. Successively, 10 ml of transfected HeLa CD4^+-cell culture supernatants containing wild-type, and mutated recombinant HIV strain […], was used to infect aliquots of 10×10^6 phytohemagglutinin-stimulated peripheral blood mononuclear cells (PBMCs) from HIV-seronegative blood donors. After 4 h of incubation, supernatants were removed and infected PBMCs were incubated at 37° C. in 10 ml of RPMI 1640 medium (Eurobio, Les Ulis Cedex B, France) supplemented with 20% fetal calf serum (Life Technologies, Ltd., Paisley, Scotland), 2 mM l-glutamine, 100 U of penicillin per ml, 100 μg of streptomycin per ml, 10% interleukin-2 (ZeptoMetrix Co., Buffalo, N.Y.), 5 μg of hydrocortisone (Sigma Chemical Co.) per ml and with fourfold dilutions of antiretroviral drugs. No-drug controls for each drug dilution were included in each assay. After 3, 5 and 7 days of incubation the HIV-1 RNA in the cell culture supernatant was quantified. Recombinant HIV-1 strains from treatment-naive patients and multidrug resistance-associated changes were assayed in parallel. The degree of inhibition of viral replication was measured by determining the HIV-1 RNA level in the supernatants of cell cultures and was expressed as the fold increase in the 50% inhibitory concentrations (IC50s) for resistant recombinant HIV-1 variants compared with the IC50s for the wild-type recombinant variant. Each test was performed in triplicate.

[3] = test system: cervical cancer HeLa cell line; experiment: Antiproliferative activity against HeLa cells (CellTiter viability assay); format: cell-based; settings: Homo sapiens
Description: (§2) Selected compounds from Table 1 were tested against the cervical cancer HeLa cell line for antiproliferative activity. Cell viability was measured with the CellTiter viability assay (Table 2). Table 3 lists the calculated antiproliferative potencies (EC50, dose required to suppress 50% of cell viability) for a series of representative compounds of the invention.

[4] = Cell viability / cytotoxicity on MOLT-4 cells; format: cell-based; settings: human, MOLT-4 cells; MOLT-4; Table 2 prints no unit; read-out: Cytotoxicity (CC50) MOLT-4, dose required to reduce 50% cell vitality
Excerpt: (§3) Cell viability in the presence of the compounds has been determined by standard MTT assays.

[5] = test system: MOLT-4; experiment: Cell viability / cytotoxicity on MOLT-4 cells; format: cell-based; settings: MOLT-4 CC50 / antiviral EC50
Excerpt: as §3

[6] = Cell viability / cytotoxicity on HeLa cells; format: cell-based; settings: human, HeLa cells (cervical cancer cell line); HeLa; Table 2 prints no unit; text gives μM; read-out: Cytotoxicity (CC50) HeLa, dose required to reduce 50% cell vitality
Description: as §3, §2

[7] = test system: HeLa cells; experiment: Cell viability / cytotoxicity on HeLa cells; format: cell-based; settings: HeLa CC50 / antiviral EC50
Description: as §3, §2

[8] = Cell viability / cytotoxicity on PBMCs; format: cell-based; settings: human; PBMCs; Table 2 prints no unit; read-out: Cytotoxicity (CC50) PBMCs, dose required to reduce 50% cell vitality
Excerpt: as §3

[9] = test system: PBMCs; experiment: Cell viability / cytotoxicity on PBMCs; format: cell-based; settings: PBMCs CC50 / antiviral EC50
Excerpt: as §3

[10] = target: T2, human DDX3 (helicase activity) (Homo sapiens, UniProt O00571); experiment: Human DDX3 helicase activity assay (ds to ss nucleic acid unwinding); format: biochemical; settings: for fold higher potency against the helicase with respect to the ATPase activity: helicase versus ATPase ID50; for fold improvement in anti-helicase activity with respect to EI01: ratio of helicase ID50; for IC50: anti-helicase activity, na = not active, read-out: Helicase ID50
T2 construct: made in house
Description: The helicase activity of DDX3 wt and mutant forms was monitored by measuring the conversion of a double stranded (ds) DNA or RNA (labelled at the 5′-end of one strand with a 6-FAM fluorescent group or P^32, respectively) into single stranded (ss) nucleic acid. Reactions were performed in 50 mM TrisHCl pH 7.5, 1 mM DTT, 0.2 mg/ml BSA, 5% glycerol and 100 μM ATP, 10 mM MgCl2 at 37° C. degrees for 10′ and stopped by adding EDTA 50 mM pH 8. Products were separated through non-denaturating 8% PAGE at 5 W for 2 hours in TBE buffer at 4° C. Substrates and products were quantified by laser scanning densitometry (Thyphoon-TRIO, GE Healthcare).
as §1
Compounds were obtained by application of a virtual docking protocol on the RNA-binding site identified in the homology model developed in the present invention. These compounds were commercially available (EI-compounds in Table 4). A few other compounds (25-31, EXAMPLE 6) were rationally designed to target the above mentioned RNA-binding site and then synthesized. All the compounds were tested for anti-helicase activity.

[11] = 72 h, read-out: EC50, anti-HIV activity
[12] = 48 hours, read-out: EC50 (μM) 48 hours, dose required to suppress 50% of cell viability
[13] = 72 hours, read-out: EC50 (μM) 72 hours, dose required to suppress 50% of cell viability
[14] = read-out: Antiviral activity, dose required to reduce 50% viral proliferation (measured as viral RNA load)

T1 sequence (O00571 whole entry): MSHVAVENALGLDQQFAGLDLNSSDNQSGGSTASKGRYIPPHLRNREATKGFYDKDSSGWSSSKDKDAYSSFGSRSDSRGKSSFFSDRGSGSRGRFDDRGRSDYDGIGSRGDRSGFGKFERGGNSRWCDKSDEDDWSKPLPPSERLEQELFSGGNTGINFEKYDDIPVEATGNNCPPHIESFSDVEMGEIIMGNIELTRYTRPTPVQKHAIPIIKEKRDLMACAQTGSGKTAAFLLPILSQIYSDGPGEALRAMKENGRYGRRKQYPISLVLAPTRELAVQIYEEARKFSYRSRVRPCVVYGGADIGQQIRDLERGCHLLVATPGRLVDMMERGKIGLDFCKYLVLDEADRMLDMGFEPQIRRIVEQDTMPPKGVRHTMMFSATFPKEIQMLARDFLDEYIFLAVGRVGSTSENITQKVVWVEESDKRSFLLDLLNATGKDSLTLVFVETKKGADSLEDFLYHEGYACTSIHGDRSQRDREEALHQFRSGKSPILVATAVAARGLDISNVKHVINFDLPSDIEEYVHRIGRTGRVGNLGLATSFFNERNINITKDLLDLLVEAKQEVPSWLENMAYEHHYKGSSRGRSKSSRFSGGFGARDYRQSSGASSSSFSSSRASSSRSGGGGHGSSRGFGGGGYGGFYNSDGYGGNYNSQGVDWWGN
T2 sequence (O00571 whole entry): as above

`Oc1ccccc1/C=N/Nc1nc(Nc2ccc(F)cc2)nc(N2CCOCC2)n1` [Compound 11d, (E)-2-((2-(4-(4-Fluorophenylamino)-6-morpholino-1,3,5-triazin-2-yl)hydrazono)methyl)phenol] gave a melting point of 234 °C, a Ki [1] of 0.4 µM and an EC50 [2, 11] of 2.5 µM.

`CCN(CC)c1nc(NCc2ccccc2)nc(N/N=C2/C(=O)Nc3ccccc32)n1` [Compound 14g, (E)-3-(2-(4-(benzylamino)-6-(diethylamino)-1,3,5-triazin-2-yl)hydrazono)indolin-2-one] showed an EC50 [3, 12] of 10 µM, an EC50 [3, 13] of 10 µM and a Ki [1] of 0.1 µM.

With `CCN(CC)c1nc(NCc2ccccc2)nc(N/N=C/c2ccccc2O)n1` [Compound 15k, (E)-2-((2-(4-(benzylamino)-6-(diethylamino)-1,3,5-triazin-2-yl)hydrazono)methyl)phenol] the EC50 [3, 12] was 3 µM, the EC50 [3, 13] was 1 µM and the Ki [1] was 0.5 µM.

In the case of `Oc1ccccc1/C=N/Nc1nc(Nc2ccc(F)cc2)nc(N2CCOCC2)n1` [Compound 16c], the CC50 [4] is reported as 5 ± 1 µM, the “Selectivity index MOLT-4, CC50/EC50” value [5] is reported as 2.0 and the CC50 [6] is reported as 2.5 ± 0.3 µM. For the same molecule, the “Selectivity index HeLa, CC50/EC50” value [7] was 1.0, the CC50 [8] was 10 ± 1 µM and the “Selectivity index PBMCs, CC50/EC50” value [9] was 4.0. It also gave an EC50 [2, 14] of 2.5 ± 0.1 µM.

For `Cc1ccccc1NC(=O)Nc1cccc([N+](=O)[O-])c1` [Compound 25, 1-(3-nitrophenyl)-3-o-tolylurea], the IC50 [1] was 11 µM, the “fold higher potency against the helicase with respect to the ATPase activity” value [10] was 11 fold and the “fold improvement in anti-helicase activity with respect to EI01” value [10] was 245 fold.

With `Cc1ccccc1NC(=O)Nc1cccc(N)c1` [Compound 26, 1-(3-aminophenyl)-3-o-tolylurea] the IC50 [10] was 5.7 µM and the “fold improvement in anti-helicase activity with respect to EI01” value [10] was 43 fold.

For `O=C(Nc1cccc([N+](=O)[O-])c1)Nc1cccc([N+](=O)[O-])c1` [Compound 29, 1,3-bis(3-nitrophenyl)urea], the IC50 [10] was 52 µM.

`Nc1cccc(NC(=O)Nc2cccc(N)c2)c1` [Compound 30, 1,3-bis(3-aminophenyl)urea] gave an IC50 [10] of 24 µM.

Molecule `Cc1ccccc1NC(=O)Nc1cccc(NC(=O)Nc2cccc(NC(=O)Nc3ccccc3C)c2)c1` [Compound 31, 1,3-bis(3-{[(2-methylphenyl)carbamoyl]amino}phenyl)urea] has an IC50 [10] of 1300 µM.

With `Oc1ccccc1/C=N/Nc1nc(Nc2ccc(F)cc2)nc(Nc2ccc(F)cc2)n1` [Compound 38, (E)-2-((2-(4,6-bis(4-Fluorophenylamino)-1,3,5-triazin-2-yl)hydrazono)methyl)phenol] the CC50 [4] was 10 ± 1 µM, the “Selectivity index MOLT-4, CC50/EC50” value [5] was 5.0 and the CC50 [6] was 20 ± 2 µM. The “Selectivity index HeLa, CC50/EC50” value [7] was 10, the CC50 [8] was 8 ± 0.5 µM and the “Selectivity index PBMCs, CC50/EC50” value [9] was 4.0. The Ki [1] was 0.1 µM, the “fold higher antiviral potency than the inhibitor FE15” value ([2]; HIV-1 infected PBMCs, ratio of EC50) was 41 fold and the EC50 [2, 11] was 2 µM. It also gave an EC50 [2, 14] of 2 ± 0.2 µM.

`Cc1ccc(NC(=O)c2cccc(NC(=O)Nc3cccc(C)c3C)c2)cc1C` [EI-01A] showed an IC50 [10] of 131 µM.

Work on `O=C(Nc1cccc(C(=O)Nc2ccccc2Cl)c1)Nc1ccccc1Cl` [EI-01B] yielded an IC50 [10] of 1300 µM.

With `Cc1ccccc1NC(=O)Nc1cccc(NC(=O)Nc2ccccc2C)c1` [EI-01] the IC50 [1] was 245 µM, the IC50 [10] was 250 µM and the “fold higher potency against the helicase with respect to the ATPase activity” value [10] was “did not discriminate between ATPase and helicase activities”.

Molecule `COc1ccc(Nc2nc(NCc3ccco3)nc(N/N=C/c3cc([N+](=O)[O-])ccc3O)n2)cc1` [FE-56A] has an EC50 [3, 12] of 8 µM, an EC50 [3, 13] of 4 µM and a Ki [1] of 31.7 µM.

Molecule `CC(=O)Nc1ccc(/C(C)=N/Nc2nc(Nc3ccccc3)nc(Nc3ccccc3)n2)cc1` [FE-56F] has an EC50 [3, 12] of 10 µM, an EC50 [3, 13] of 5 µM and a Ki [1] of 0.3 µM.

`Cc1[nH]c2ccccc2c1/C=N/Nc1nc(Nc2ccc(F)cc2)nc(N2CCOCC2)n1` [FE-56M] showed an EC50 [3, 12] of 10 µM, an EC50 [3, 13] of 5 µM and a Ki [1] of 0.2 µM.

`Clc1ccc(-c2ccc(/C=N/Nc3nc(Nc4ccccc4)nc(N4CCCCC4)n3)o2)cc1` [FE-56N] gave an EC50 [3, 12] of 25 µM, an EC50 [3, 13] of 4 µM and a Ki [1] of 0.4 µM.

From patent publication US20120202814A1, “COMPOUNDS WITH DDX3 INHIBITORY ACTIVITY AND USES THEREOF” (UNIVERSITÀ DEGLI STUDI DI SIENA, priority 2009, published 2012)
